One may read the MRT as the average time that molecules of a dose stay in the body. The Vss is a proportionality between amount in the body and measured concentration, not a real space. A low value points to little distribution into tissue. By IC50 is commonly meant the concentration at which inhibition is half-maximal. The low end stands for greater potency in that assay, the high end for weaker potency in that assay.

“And” between values parts separate entries of the source, which are not always exact repeats. Identical values can stand only once. Like-named read-outs stand apart in the source and are kept apart here.

The nature of data set [1]: PK, single intravenous dose. Type of data set: in vivo, rats. The note with it: 6.1 mg/kg ZG0128 iv. How it is done:
Preclinical Pharmacokinetic Properties
Pharmacokinetic Study of Single Dose Intravenous Administration in […]
ZG0163 administered via intravenous injection had low plasma clearance in rats, […]
The Tmax of the metabolite
ZG0245 in rats was 1.0 h on average, and the plasma exposure (AUC0-t) was 15.0% of the original drug. The pharmacokinetic parameters obtained after the intravenous […]
Table 10. Pharmacokinetic parameters of ZG0163 in rats administered with 6.1 mg/kg of ZG0128 via intravenous injection. […]

A short description of data set [2]: PK, 7-day intragastric dosing. Type of data set: in vivo, beagles. The note with it: 122 mg/animal once daily. How it is done:
Suzhou Zelgen Biopharmaceuticals Co., Ltd. Jaktinib Hydrochloride Tablets Chemical Drug Class 1 New Drug higher than ZG0163, which was higher than the ratio of intravenous administration. […]
produced through first-pass metabolism. Within the dosage range of 61-244 mg, the AUC0-t of ZG0245 increased proportionally with the increasing dosage.
Pharmacokinetics of 7 consecutive days of multi-dose intragastric […]
After 7 consecutive days of intragastric administration (2 tablets once daily, equal […]
respectively, when compared to single-dose administration. The Cmax and AUC0-t of metabolite ZG0245 were 1.33 and 0.95 times compared to single-dose administration.
Thus, there was no significant accumulation of ZG0163 and metabolite ZG0245 after 7 days of consecutive administration. […]
intragastric administration of 61 mg ZG0163.
ZG0128, and the exposure was 93.0% of that of the medium dosage group (122 […]
of that of the medium dosage group (122 mg/animal).
Identification of Metabolites in Rat Samples
Using UPLC-UV/Q-TOF MS, potential metabolites were identified in rat plasma, urine, feces and bile, after single intragastric administration of 30.5 mg/kg ZG0128, as well as metabolites in mice plasma after single intragastric administration of 61 mg/kg ZG0128. […]

Data set [3] can be described thus: Estimate of human equivalent and starting dose from animal NOAEL. The note with it: for maximum safe starting dose in human: safety factor 10; for MRSD: safety factor 10, 60 kg. How it is done: The human equivalent doses (HED) for the above tests were 9 mg/kg and 5 mg/kg, respectively (Table 9). According to the "Guidance for Estimating the Maximum Recommended Dose in Initial Clinical Trials for Therapeutics in Adult Healthy Volunteers" issued by CFDA and a safety factor of 10, the maximum safe starting doses for the first dose in human were calculated as about 50 mg and 30 mg, respectively.
The single starting dose of this study was set to 25 mg, while the highest dose was set to 400 mg. The 400 mg dose would not be further increased even it was […]
Animal Test Anima Dosage HNSTD HED MRSD […]
Toxicity Test 61.0/oral gavage in Beagle Dogs 196.2/oral gavage a The safety factor was 10, while the human body weight was calculated as 60 kg. […]

Data set [4] is described as follows: Treatment-related AEs (NCI CTCAE), MAD cohorts. The class given is in vivo, human. The method, then:
MAD study was conducted after evaluating the tolerance of the single dose 100 mg cohort. In MAD part, volunteers were designed into five cohorts (100 mg q24h, 150 mg q24h, 100 mg q12h, 200 mg q24h, 150 mg q12h). […] The MAD part was initiated after the safety and tolerance evaluation from SAD 100 mg cohorts. Progression to higher MAD doses was allowed after review the safety data of the prior MAD cohorts.
Dose-limiting toxicities (DLTs) were defined according to the NCI CTCAE v.4.03 as any occurrence of the following drug-related adverse events (AEs): more than one third of volunteers suffered Grade ≥4 drug-related hematological toxicities or Grade ≥3 drug-related nonhematological toxicities; one drug-related serious adverse events (SAEs).

The subject of data set [5] is cells transformed by selected oncogenic mutants of tyrosine kinases. Put plainly: Inhibition of transformed cells. The class given is cell-based.
A short description of data set [6]: Metabolic stability in liver microsomes. The class given is in vitro ADME, mouse. The method, then:
(§1) The metabolic stability of ZG0128 (the dihydrochloride monohydrate of ZG0163) was evaluated using human, monkey, dog, rat, and mouse liver microsomes as the in vitro models. The percentages of residues for ZG0128 after incubating in human, monkey, dog, rat, and mouse liver microsomes for 60 minutes was 55.5%, 63.1%, 67.1%, 80.3%, and 79.0%, respectively. The CLint values of in vivo clearance were calculated to be 24.1, 21.6, 33.4, 10.7, 26.0 mL/min/kg, respectively. Thus its was speculated that ZG0128 was a medium clearance drug in humans, monkeys, and mice, a high clearance drug in dogs, and a low clearance drug in rats.
(§2) Using UPLC-UV/Q-TOF MS, the potential metabolites of ZG0128 in various liver microsomes (human, monkey, dog, rat and mouse liver microsomes) incubation systems were identified and the metabolic pathways of ZG0128 were speculated. The main metabolite of ZG0128 in above five types of liver microsomes were primary alcohol metabolite formed by morpholine ring-opening (M3). […]

Data set [7] in a line: Metabolic stability in liver microsomes. Type of data set: in vitro ADME, monkey. How it is done:
as §1, §2
A general note: Microsomes from liver hold many membrane-bound enzymes, among them those of drug oxidation.

Regarding Jaktinib, in data set [1] (Female), the AUC0-t was 26000 ng·h/mL, the “AUC0-∞” value amounted to 26000 ng·h/mL, the CL came to 3.23 ± 0.38 mL/min/kg and the MRT is listed as 2.11 h. In data set [1] (Female), this compound registered a distribution volume (Vss) of 0.407 ± 0.063 L/kg and a t1/2 of 2.01 h. Further, in data set [1] (Male), the AUC0-t amounted to 17700 ng·h/mL, the “AUC0-∞” value was determined as 17700 ng·h/mL, the CL was 4.92 ± 1.34 mL/min/kg and the MRT was 2.16 h. In data set [1] (Male), this compound returned a Vss of 0.620 ± 0.120 L/kg and a t1/2 of 2.01 h. In addition, in data set [1] (Overall), the AUC0-t came out at 21800 ng·h/mL, the “AUC0-∞” value was 21900 ng·h/mL, the mean residence time MRT is given as 2.14 h and the t1/2 is given as 2.01 h. In addition, in data set [1] (Overall, listed as ZG0163), the CL is 4.07 mL/min/kg and 4.07 ± 1.28 mL/min/kg; the Vss is 0.514 L/kg and 0.514 ± 0.145 L/kg. The “day on which steady state was reached” value in data set [2] was 5 days. The “human equivalent dose (HED)” value in data set [3] (from 26-week rat NOAEL) is on record as 5 mg/kg. Moreover, the “human equivalent dose (HED)” value in data set [3] (from 28-day Beagle dog NOAEL) is recorded as 9 mg/kg. Besides, in data set [3] (from dog NOAEL), the “maximum safe starting dose in human” value is recorded as “about 50 mg” and the MRSD was 54 mg/day. Also, in data set [3] (from rat NOAEL), the “maximum safe starting dose in human” value is about 30 mg and the MRSD is listed as 30 mg/day. Besides, in data set [4] (MAD jaktinib group), the diarrhea incidence stood at 22.5%, the dizziness incidence is reported as 17.5% and the leukopenia incidence was determined as 12.5%. For the same compound, in data set [4] (all MAD cohorts), the “volunteers with treatment-related AEs” value turned out to be 74.0%. Moreover, the “deaths, SAEs and Grade ≥4 AEs” value in data set [4] (all cohorts (SAD, MAD, food effect)) is “No deaths, SAEs and Grade ≥4 AEs were reported”. The compound also registered a Neutropenia incidence in data set [4] (in vivo) of 27.5%. This compound also registered a maximally tolerated dose in data set [4] (multiple dose, q24 h) of 200 mg. Besides, in data set [5], the IC50 came to 0.1 µM.

Take `Cl.Cl.O.[2H]C1([2H])COCC([2H])([2H])N1c1ccc(Nc2nccc(-c3ccc(C(=O)NCC#N)cc3)n2)cc1` [ZG0128, Jaktinib Dihydrochloride Monohydrate]: in data set [6], the “CLint of in vivo clearance” value is 26.0 mL/min/kg and the “percentage of residue after 60 minutes” value worked out at 79.0%. In addition, in data set [7], the “CLint of in vivo clearance” value is on record as 21.6 mL/min/kg and the “percentage of residue after 60 minutes” value is 63.1%.

The record behind these values is publication PMC7849180 (Frontiers in Pharmacology, 2020).
